These results are taken from US20020061849A1, “Methods for treatment of diseases associated with inflammation under non-ischemic conditions” (priority 2000, published 2002).

The subject of one assay is AQP2. Kind of assay: Bilateral ureteral obstruction (BUO), semiquantitative immunoblotting of AQP2. The settings on record: inner medulla, 24 h BUO; α-MSH 50 μg i.v. at onset and 12 hours later (nontreated 13±4%); epoitin 100 U/kg/day i.p. (nontreated 16±3%). In kind it is in vivo, rat. How it is done: (§1) Adult Munich-Wistar rats were anesthetized with halothane and placed on a heating board under an operating microscope, Through a midline abdominal incision both ureters were exposed and occluded by placing a 5-mm piece of bisected polyethylene tubing (PE-50) around the midportion of each ureter. The ureter was then occluded by tightening the tubing with a 5-0 silk ligature. 24 hours later, the obstructed ureters were decompressed by removal of the ligature and the PE-50 tubing. Done in this manner, both ureters could be completely occluded for 24 h and without evidence of functional impairment of ureteral function and rats followed up to several days after release of obstruction.
(§2) Protocol III-1: This protocol included 1) Rats with BUO for 24 hours (n=20) and 2) sham-operated rats (n=10).
Protocol III-6: This protocol included 1) Rats with BUO for 24 hours and 2) sham-operated rats. […]
(§3) ECL films with bands within the linear range were scanned using an AGFA scanner (ARCUS II) and Corel Photopaint Software to control the scanner. […] The labeling density was determined of blots where samples of kidneys from α-MSH treated and nontreated groups were run together with samples from control kidneys. […]
A general note: A western blot detects proteins with antibodies after separation by electrophoresis.

Assay [1] deals with adriamycin-induced nephrotic syndrome. Kind of assay: Adriamycin-induced nephrotic syndrome.
Procedure: Protocol IV-1. Rats were treated with adriamycin (7.5 mg/kg i.p.; n=12) and followed for 21 days, respectively. Shams received saline i.p. (n=6). […] The other half received vehicle (saline) in osmotic minipumps.
Protocol IV-3. Rats were treated with adriamycin (7.5 mg/kg i.p.; n=8) and followed for 21 days, respectively. Shams received saline i.p. (n=6). Half of the adriamycin treated animals received epoetin (100 units/kg/day) during the entire experiments. The other half received vehicle (saline).
Assay [2] deals with renal function in rats treated with continious LPS infusion. The experiment in a line: Systemic LPS infusion by osmotic minipump for three days, renal function. The settings on record: for increase of GFR (creatinin clearance) compared to the LPS-Vehicle group: LPS infusion for three days; for survival during 3 days of LPS-administration: N=5 per group, mortality in vehicle group 20%.
Procedure: To relieve postoperative pain, rats were treated with buprenorfin, 0.2 mg/kg body weight i.p. Two weeks later the rats were anesthetized with halothane-nitrous oxide and a osmotic minipump (Alzet 1003D)filled with a LPS solution was implanted into the abdomen. The mean infusion rate of LPS was 200 μg/kg/hour. All rats except the control rats received LPS infusion. N=5 in all groups.
Protocol II: Systemic LPS-infusion:
II-1. Controls. Untreated rats without LPS infusion.
II-2 Vehicle: Rats receiving LPS infusion treated with 0.5 ml 0.9% NaCl twice daily.
II-3 rh-EPO: Rats receiving LPS infusion treated with 200 I.U. epoitin alpha (EPO)/kg body weight in 0.5 ml 0.9% NaCl twice daily.

Assay [3] deals with lung tissue exposed with LPS. The experiment in a line: LPS-inhalation induced lung inflammation, differential counting of lavage cells. The conditions noted are these: rats, LPS inhalation 5 mg for 20 min, lavage 24 h later, treatment at onset of LPS and after 12 hours (α-MSH 50 μg i.v.; Epoitin 100 U/kg/day i.p.).
Procedure: Studies were performed on male Spraque Dawley rats (Møllegard Breeding centre Ltd., Eiby, Denmark). The rats were maintained on a standard rodent diet (Altromin, Lage, Germany) with free access to water. Inflammation of the lungs (asthma) was induced by LPS inhalation with the animals anesthetized using Midazolam and Hypnorm The LPS was administrated by connecting the rat to a semiclosed breathing system consisting of a MAXIN bottle filled with a mixture of LPS in saline connected to a standard inhalation chamber. Each animals is exposed for 20 min with 5 mg LPS. Twenty-four hours after exposure to LPS rats were killed. Subsequently, lavage was performed by washing the lungs with PBS (5 ml) 6 times. The lung tissue was then centrifuged for 10 min (1000 rpm) and resuspended in 0.5 ml. From each sample 2 blood smears were made. They were air-dryed, fixed and counterstained for differential cell counting.
The next assay concerns AQP1. The experiment in a line: Bilateral ureteral obstruction (BUO), semiquantitative immunoblotting of AQP1. In kind it is in vivo, rat. How it is done:
as §1
(§4) Protocol III-2: This protocol included 1) Rats with BUO for 24 hours and followed by release for 5 hours (n=10) and 2) Sham operated rats (n=5). The rats with BUO-R were divided into two groups: α-MSH nontreated (n=5) and α-MSH treated (n=5). α-MSH ([…], i.v.) was given at the onset of BUO, 12 hours later and at the onset of release.
(§5) Protocol III-3: This protocol included 1) Rats with BUO for 24 hours and followed by release for 48 hours. The rats were divided into two groups: α-MSH nontreated (n=10) and α-MSH treated (n=13). α-MSH (50 μg) was given with micro-osmotic pump via jugular vein at the onset of BUO. 2) Sham operated rats (n=8) treated with vehicle with micro-osmotic pump.
Inner medulla and whole kidneys were homogenized (0.3 M sucrose, 25 mM imidazole, 1 mM EDTA, pH 7.2, containing 8.5 μM leupeptin. 1 mM phenylmethyl sulfonylfluoride) using an ultra-turrax T8 homogenizer (IKA Labortechnik, Germany), at 5 strokes for 20 seconds (inner medulla) or at 5.5 strokes for 30 seconds (whole kidney) and the homogenate was centrifuged in an Eppendorf centrifuge at 4000 g for 15 minutes at 4° C. to remove whole cells, nuclei and mitochondria. Gel samples (Laemmli sample buffer containing 2% SDS) were made of this pellet.
[…] For each gel, identical gel was run in parallel and subjected to Coomassie staining to assure identical loading. Then gels were subjected to immunoblotting. […] The labeling was visualized with horseradish peroxidase (HRP)-conjugated secondary antibodies (P448, DAKO, Glostrup Denmark, diluted as 1:3000) using an enhanced chemiluminescence system (ECL, Amersham International, UK).
ECL films with bands within the linear range were scanned using an AGFA scanner (ARCUS II) and Corel Photopaint Software to control the scanner. For AQP1 and AQP2, both the 29-kDa and the 35- to 50-kDa bands (corresponding to nonglycosylated and the glycosylated species) were scanned. […] The labeling density was determined of blots where samples of kidneys from α-MSH treated and nontreated groups were run together with samples from control kidneys. […]

For the next assay, the system named is AQP3. Kind of assay: Bilateral ureteral obstruction (BUO), semiquantitative immunoblotting of AQP3. It is filed as in vivo, rat. The settings on record: inner medulla. How it is done: as §1, §2
Protocol III-2: This protocol included 1) Rats with BUO for 24 hours and followed by release for 5 hours (n=10) and 2) Sham operated rats (n=5). […]
as §3

For another assay, the system named is Na,K-ATPase. Kind of assay: Bilateral ureteral obstruction (BUO), semiquantitative immunoblotting of Na,K-ATPase. It is filed as in vivo, rat. The settings on record: whole kidney; for Na-K-ATPase levels, % of control: nontreated 35-50% of control levels. How it is done: as §1, §2, §4
Protocol III-3: This protocol included 1) Rats with BUO for 24 hours and followed by release for 48 hours. The rats were divided into two groups: α-MSH nontreated (n=10) and α-MSH treated (n=13). α-MSH (50 μg) was given with micro-osmotic pump via jugular vein at the onset of BUO. 2) Sham operated rats (n=8) treated with vehicle with micro-osmotic pump. […]
as §3

Assay [4] concerns renal function in rats with BUO. Kind of assay: Bilateral ureteral obstruction (BUO), plasma parameters and clearance studies. In kind it is in vivo, rat. How it is done: as §1, §2, §5
1) Rats with BUO for 24 hours followed by release for 48 hours (n=10) and 2) sham-operated rats (n=5).
Weight, water intake, food intake and urine output were observed during the rats were maintained in the metabolic cages. Urine was collected over 24-h periods throughout the study. Urine volume, osmolality, creatinine, sodium and potassium concentration were measured. Plasma was collected from abdominal aorta at the time of sacrifice for measurement of sodium and potassium concentration, creatinine, and osmolality. In protocols 4 and 9 detailed examinations of renal function was performed: The experiments were carried out between 8 a.m. and 1 p.m. The rats were transferred to a restraining cage and connected to infusion pumps via the vein catheter and to a BP transducer via the arterial catheter. Urine was collected in three periods of 20 min preceded by an equilibration period of 105 min. Throughoutthe experiment, a half isotone saline (77 mM NaCl) was infused at a rate of 70 μl/min to maintain a minimum urine flow necessary for accuracy of the bladder emptying. ^14C-tetraethylammonium bromide (0.83 μCi/ml; New England Nuclear, Boston, Mass.), together with ^3H-inulin (2.5 μCi/ml; Amersham, Rainham, United Kindgom) and LiCI (13 mmol/L), were infused together with the saline as markers of effective renal plasma flow (ERPF), GFR, and tubular fluid delivery from proximal tubules (Vprox), respectively. A bolus of markers four times the continuous infusion velocity was given in the first 15 min. Blood samples (200 μl) were drawn from the arterial catheter after 105 and 165 min. Blood substitution with donor blood was given after each blood sample. Mean arterial BP was recorded continuously using a Uniflow™ transducer (Baxter, Irvine, Calif.) connected to a preamplifier and PC registration. Clearance experiments were carried out in BUO and SHAM rats 7 days prior to obstruction and 48 hours after release of BUO.
Urine volume was determined by gravimetric means.

Assay [5] relates to purimycin-induced nephrotic syndrome. Kind of assay: Purimycin (PAN)-induced nephrotic syndrome.
Procedure: Nephrotic syndrome was induced by a single i.p. or s.c. injection of adriamycin or purimycin (at various doses) and the rats were followed for 7 days-21 days. Development of severe nephrotic syndrome was established by monitoring the total body weight, urinary protein excretion (proteinuria) and at time of ending the experiment the volume of fluid in the abdominal cavity was determined (rats develop severe water retention and ascites).
Protocol IV-2. Rats were treated with purimycin (100 mg/kg i.p., n=6) and followed for 11 days, respectively.
To determine the levels of proteinuria in experimental nephrotic syndrome urine was examined daily using Albym (Boehringer-Mannheim).
[6] abbreviates: BUO for 24 h followed by 48 h of release.

With epoitin alpha, the “AQP2 expression, % of sham level” value in the assay on AQP2 was 30±18%. Further, in [1] (adriamycin-induced nephrotic syndrome, EPO once every 24 hours), the “ascites formation, result in words” value is given as “prevented the ascites formation”. In assay [2], the “increase of GFR (creatinin clearance) compared to the LPS-Vehicle group” value is listed as 51% and the “survival during 3 days of LPS-administration” value is “All animals survived”. Also, in assay [3], the “Differential counting of cells %, Eosinofiles” value came to 0.7 ± 0.6%; the “Differential counting of cells %, Lymfocytes” value is given as 77.1 ± 9.9%; the “Differential counting of cells %, Monocytes” value is 11.4 ± 4.6%; the “Differential counting of cells %, Neutrofiles” value is given as 10.9 ± 12.7%. Moreover, in assay [3] (listed as epoitin), the “Differential counting of cells %, Eosinofiles” value turned out to be 0.7±0.6% and the “Differential counting of cells %, Neutrofiles” value came to 10.9±12.7%.

With “α-melanocyte-stimulating hormone [α-MSH]”, the “AQP1 expression, % of sham level” value turned out to be 62±9% in the assay on AQP1 (outer medulla and cortex, 24 h BUO followed by release for 5 hours, nontreated 35±2%); 73±8% in the assay with AQP1 (outer medulla and cortex, 24 h BUO followed by release for 48 hours, α-MSH by micro-osmotic pump); 81±21% with AQP1 (whole kidney, 24 h BUO followed by release for 5 hours, α-MSH 50 μg i.v. at onset, 12 hours later and at release, nontreated 7±2%); 58±6% in the assay with AQP1 (whole kidney, 24 h BUO followed by release for 48 hours, α-MSH 50 μg by micro-osmotic pump, nontreated 24±5%). Moreover, in the assay with AQP2, the “AQP2 expression, % of sham level” value is 38±5%. The “AQP3 expression, % of sham level” value in the assay on AQP3 (24 h BUO followed by release for 5 hours, nontreated 14±5%) was 34±4%; in the assay on AQP3 (24 h BUO, α-MSH 50 μg i.v. at onset and 12 hours later, nontreated 19±4%) it was 44±3%. For the same substance, the “Na-K-ATPase levels, % of control” value in the assay with Na,K-ATPase (24 h BUO followed by 5 h of release) was found to be 102±14%; with Na,K-ATPase (48 hours after release of BUO) it was 114±10%. Further, the “Na,K-ATPase levels” value in the assay on Na,K-ATPase (24 h BUO, result in words) was “completely normalized”. This substance came in with a plasma sodium levels in assay [4] (24 h BUO, without α-MSH 135±2 mmol/L) of 139 ± 0.6 mmol/L. In assay [4] (48 hours after release of BUO, SHAM 840±105), the “Glomerular filtration rate (GFR)” value stood at 705±85 μl/min/100 g. In assay [4] (48 hours after release of BUO, SHAM 2633±457), the “Effective renal plasma flow (ERPF)” value was 2598±129 μl/min/100 g. The plasma urea in assay [4] (BUO for 24 h followed by 48 of release, nontreated 35±9 mmol/l) amounted to 13 ± 2 mmol/L. The substance also came in with a Plasma creatinine levels in assay [4] (BUO for 24 h followed by 48 of release, nontreated 160±34 μmol/l) of 79 ± 34 µmol/L. For the same substance, the “ERPF, result in words” value in [4] (setting [6]) was “completely normalized”. The “GFR, result in words” value in assay [4] (setting [6]) is listed as “completely normalized”. In addition, the “prevention of ascites production” value in assay [1] (adriamycin i.p. (Protocol IV-1), α-MSH for 3-4 days after injection) amounted to 89±7%. Besides, the proteinuria levels entry in [5] (PAN rats at day 5 after PAN injection (FIG. 3), result in words) is recorded as “marked reduction”. Further, the proteinuria result in [5] (low dose purimycin treatment (Protocol IV-2), result in words) is reported as “marked reduction”. Moreover, the “reduction of ascites production” value in assay [5] (low dose purimycin treatment, n=6 (Protocol IV-2)) was 80±8%. For the same substance, the “preventive effect on nephrotic syndrome” value in assay [5] (very servere purimycin (high dose) induced nephrotic syndrome, result in words) is on record as “less potent effect”. Besides, the “increase of GFR (creatinin clearance) compared to the LPS-Vehicle group” value in assay [2] is listed as 57%. Also, in assay [2], the “survival during 3 days of LPS-administration” value was “All animals survived”. In addition, the “Differential counting of cells %, Eosinofiles” value in assay [3] is listed as 1.8±1.3%. The “Differential counting of cells %, Lymfocytes” value in [3] is on record as 72.3 ± 12.1%. For the same substance, the “Differential counting of cells %, Monocytes” value in [3] was 12.3 ± 7.4%.
